In patent publication US8067451B2, “Methods and medicaments for administration of ibuprofen” (Horizon Pharma USA, Inc., priority 2006, dated 2011):
Where two headings read alike, the source gives them in different places. Values belong to the molecule of their own block, whether it stands above or below them.

Assays:
[1] = clinical; settings: male, human, plasma
[2] = Pharmacokinetic drug-drug interaction study of ibuprofen and famotidine in healthy male subjects; settings: for Bioequivalence when administered in combination compared to separate administration: 800 mg ibuprofen and 40 mg famotidine; for Difference of log-transformed AUC(last), alone versus in combination / Difference of log-transformed Cmax, alone versus in combination: bioequivalence test
[3] = Excerpt: where V/F is the apparent volume of distribution, ka is the absorption rate constant, kel is the elimination rate constant and Tlag is the absorption lag time.
[4] = test system: intragastric pH
Excerpt: The estimated pharmacodynamic parameters are listed below: Using the pharmacokinetic parameters obtained above together with the pharmacodynamic parameters above, plasma concentrations as well as intragastric pH as a function of time were simulated for various dose regimens.

[5] = test system: gastric pH; settings: for Amount by which TID dosing exceeded BID dosing, Gastric pH (24 h), mean of group / Amount by which TID dosing exceeded BID dosing, Upright Gastric pH, mean of group / Mean reduction in time with gastric pH below 3.5, TID compared to BID / Mean reduction in time with gastric pH below 4.0, TID compared to BID: 26.6 mg TID vs 40 mg BID; for Median pH (Upright), by subject / Fraction time pH < 4, by subject / Time pH < 4, by subject: individual subjects; for Fraction time pH < 4, by subject / Time pH < 4, by subject: 24 h; for Patients with 24-hour median gastric pH below 2.5: 13 subjects
Method: Thirteen healthy subjects participated in the study.
There was a washout of at least one week between administration of the last dose of Treatment Period 1 and administration of the first dose of Treatment Period 2.
All doses of study medication were administered orally, on an open-label basis. Subjects were prohibited from taking any medications or interventions that decrease gastric acid secretion or neutralize gastric acid, and any medications that are known or suspected to cause dyspepsia or gastrointestinal ulcers, throughout the study period.
(The first day of dosing for each treatment period is designated Study Day 1, and the last day of dosing is designated Study Day […]). Subjects were followed for 14 days after administration of their last dose of study medication.
(§1) For each patient the median pH during a 24 hour period (or subperiod thereof) was calculated. To measure the effect of treatments for a group of individuals, the average or mean of the measured medians for several individuals was determined (i.e., average={[M1+M2 . . . Mx]/X} where “x” is the number of individuals in the group and each “M” is the median for an individual in the group).

[6] = remark: listed apart in the source
Method: as §1
Samples were collected prior to initiation of dosing, and prior to administration of the second dose of study medication on Study Day 1 and Study Day 5 during both treatment periods.

[7] = for Famotidine (% control): glass vials
Excerpt: Forced degradation conditions refer to conditions of elevated temperature, or elevated temperature and humidity, intended to accelerate the process of chemical degradation. Forced degradation conditions for a period of time are used to predict the effect of storage under more benign conditions (e.g., room temperature) for a longer period of time.
After grinding, API mixture was stored in glass vials under the conditions indicated.

[8] = fit to mean plasma data of 40 mg Pepcid single dose study
[9] = 26.6 mg TID, 24 h of Study Day 1, all subjects n=13
[10] = 26.6 mg TID, Study Day 1, all subjects
[11] = 26.6 mg TID, Study Day 1, all subjects n=13
[12] = 26.6 mg TID, Study Day 1, normal weight subjects
[13] = 26.6 mg TID, Study Day 1, normal weight subjects n=9
[14] = 40 mg BID, 24 h of Study Day 1, all subjects n=13
[15] = 40 mg BID, Study Day 1, all subjects
[16] = 40 mg BID, Study Day 1, all subjects n=13
[17] = 40 mg BID, Study Day 1, normal weight subjects
[18] = 40 mg BID, Study Day 1, normal weight subjects n=9

- Tmax ([1]; oral): 2.25 ± 1.89 h
- Tmax ([1]; po): 1.58 ± 0.49 h
- Bioequivalence when administered in combination compared to separate administration [2]: bioequivalent
- Difference of log-transformed AUC(last), alone versus in combination [2]: 0.02
- Difference of log-transformed Cmax, alone versus in combination [2]: 0.02
Structure (SMILES): CC(C)Cc1ccc(C(C)C(=O)O)cc1 (stereo not drawn) [ibuprofen, 2-(p-isobutylphenyl) propionic acid]

- V/F (apparent volume of distribution) ([3]; fit to mean plasma data of 40 mg Pepcid single dose bioequivalence study (n=30)): 241.8 L
- Tlag (absorption lag time) [3, 8]: 0.3677 h
- ka (absorption rate constant) [3, 8]: 0.8133 h⁻¹
- kel (elimination rate constant) [3, 8]: 0.2643 h⁻¹
- EC50 (Pepcid concentration at one-half of Emax) ([4]; sigmoid Emax fit, plasma concentration vs intragastric pH, one patient): 0.0326 µg/mL
- Plasma accumulation with TID dosing ([6]; 26.6 mg TID vs 40 mg BID, day 5 trough): does not lead to plasma accumulation
- Trough plasma concentration of famotidine (mean) ([6]; 26.6 mg TID, Day 1, prior to second dose): 9.7 ng/mL
- Trough plasma concentration of famotidine (mean) ([6]; 26.6 mg TID, Day 5, prior to second dose): 15.7 ng/mL
- Trough plasma concentration of famotidine (mean) ([6]; 40 mg BID, Day 1, prior to second dose): 10.5 ng/mL
- Trough plasma concentration of famotidine (mean) ([6]; 40 mg BID, Day 5, prior to second dose): 15.7 ng/mL
- Famotidine (% control) ([7]; 1 wk 40° C.): 96.1 % control
- Famotidine (% control) ([7]; 1 wk 60° C.): 121.0 % control
- Famotidine Content (percent of target content) ([7]; 2 weeks at 60° C.): 98%
- Famotidine (% control) ([7]; 2 wks 60° C.): 100.1 % control
- Tmax ([1]; oral): 2.17 ± 0.93 h
- half-life ([1]; oral): 3.49 ± 0.35 h
- Tmax ([1]; po): 1.67 ± 0.52 h
- half-life ([1]; po): 3.66 ± 0.19 h
- Bioequivalence when administered in combination compared to separate administration [2]: bioequivalent
- Kel (mean ± SD) ([2]; administered alone, single oral dose, 800 mg ibuprofen or 40 mg famotidine): 0.19 ± 0.01
- Difference of log-transformed AUC(last), alone versus in combination [2]: −0.034
- Difference of log-transformed Cmax, alone versus in combination [2]: −0.08
Structure (SMILES): NC(N)=Nc1nc(CSCCC(N)=NS(N)(=O)=O)cs1 [famotidine, 3-[2-(diaminomethyleneamino)thiazol-4-ylmethylthio]-N-sulfamoyl propionamidine]
- Emax (maximum intragastric pH) ([4]; sigmoid Emax fit of digitized plasma concentration vs intragastric pH, one patient (Echizen and Ishizaki)): 7.80
- E0 (intragastric pH at time zero) ([4]; sigmoid Emax fit, one patient): 1.88
- γ (shape factor) ([4]; sigmoid Emax fit, one patient): 4.80
- Amount by which TID dosing exceeded BID dosing, Gastric pH (24 h), mean of group ([5]; all subjects): 0.3 pH Units
- Amount by which TID dosing exceeded BID dosing, Upright Gastric pH, mean of group ([5]; all subjects): 0.5 pH Units
- Mean reduction in time with gastric pH below 3.5, TID compared to BID ([5]; all subjects): 19.5 min
- Mean reduction in time with gastric pH below 4.0, TID compared to BID ([5]; all subjects): 23.1 min
- Amount by which TID dosing exceeded BID dosing, Gastric pH (24 h), mean of group ([5]; normal weight group): 0.5 pH Units
- Amount by which TID dosing exceeded BID dosing, Upright Gastric pH, mean of group ([5]; normal weight group): 0.8 pH Units
- Mean reduction in time with gastric pH below 3.5, TID compared to BID ([5]; normal weight group): 89.3 min
- Mean reduction in time with gastric pH below 4.0, TID compared to BID ([5]; normal weight group): 89.9 min
- Average time below pH 3.5 [5, 9]: 693.5 min
- Average time below pH 4.0 [5, 9]: 783.4 Minutes
- Average Absolute Deviation of 24 hour median gastric pH [5, 10]: 0.5
- Average Absolute Deviation of pH in upright position [5, 10]: 0.7
- Average Absolute Deviation of time below pH 3.5 [5, 10]: 124.7 min
- Average Absolute Deviation of time below pH 4.0 [5, 10]: 111.9 min
- Max-Min of pH values in the upright position [5, 10]: 2.4 pH units
- Max-Min of time below pH 3.5 [5, 10]: 436 min
- Max-Min of time below pH 4.0 [5, 10]: 459 min
- Standard Deviation of 24 hour median gastric pH [5, 10]: 0.7
- Max-Min of 24 hour median gastric pH [5, 11]: 1.9 pH units
- Mean of 24 hour median gastric pH [5, 11]: 3.6 pH units
- Mean of pH values taken in the upright position [5, 11]: 3.7
- Range of 24 hour median gastric pH [5, 11]: 2.5-4.4
- Range of pH values taken in the upright position [5, 11]: 2.3-4.7
- Range of time below pH 3.5 [5, 11]: 514-950 min
- Range of time below pH 4.0 [5, 11]: 589-1048 Minutes
- Average Absolute Deviation of 24 hour median gastric pH [5, 12]: 0.5
- Average Absolute Deviation of time below pH 3.5 [5, 12]: 116.7 min
- Average Absolute Deviation of time below pH 4.0 [5, 12]: 105.4 min
- Average Absolute Deviation of upright pH values [5, 12]: 0.9
- Average time below pH 3.5 [5, 12]: 662.7 min
- Average time below pH 4.0 [5, 12]: 764.2 Minutes
- Max-Min of 24 hour median gastric pH [5, 12]: 1.9 pH units
- Max-Min of time below pH 3.5 [5, 12]: 436 min
- Max-Min of time below pH 4.0 [5, 12]: 459 min
- Max-Min of upright pH values [5, 12]: 2.4 pH units
- Mean of upright pH values [5, 12]: 3.8
- Range of time below pH 3.5 [5, 12]: 514-950 min
- Range of time below pH 4.0 [5, 12]: 589-1048 Minutes
- Range of upright pH values [5, 12]: 2.3-4.7
- Standard Deviation of 24 hour median gastric pH [5, 12]: 0.7
- Mean of 24 hour median gastric pH [5, 13]: 3.6
- Range of 24 hour median gastric pH [5, 13]: 2.5-4.4
- Average time below pH 3.5 [5, 14]: 713.0 min
- Average time below pH 4.0 [5, 14]: 806.5 Minutes
- Average Absolute Deviation of 24 hour median gastric pH [5, 15]: 0.9
- Average Absolute Deviation of pH in upright position [5, 15]: 1.0
- Average Absolute Deviation of time below pH 3.5 [5, 15]: 169.1 min
- Average Absolute Deviation of time below pH 4.0 [5, 15]: 158.8 min
- Max-Min of pH values in the upright position [5, 15]: 3.3 pH units
- Max-Min of time below pH 3.5 [5, 15]: 706 min
- Max-Min of time below pH 4.0 [5, 15]: 710 min
- Standard Deviation of 24 hour median gastric pH [5, 15]: 1.1
- Max-Min of 24 hour median gastric pH [5, 16]: 3.3 pH units
- Mean of 24 hour median gastric pH [5, 16]: 3.3 pH units
- Mean of pH values taken in the upright position [5, 16]: 3.2
- Range of 24 hour median gastric pH [5, 16]: 1.8-5.1
- Range of pH values taken in the upright position [5, 16]: 1.8-5.1
- Range of time below pH 3.5 [5, 16]: 459-1165 min
- Range of time below pH 4.0 [5, 16]: 514-1224 Minutes
- Average Absolute Deviation of 24 hour median gastric pH [5, 17]: 0.9
- Average Absolute Deviation of time below pH 3.5 [5, 17]: 175.1 min
- Average Absolute Deviation of time below pH 4.0 [5, 17]: 155.7 min
- Average Absolute Deviation of upright pH values [5, 17]: 1.0
- Average time below pH 3.5 [5, 17]: 752.0 min
- Average time below pH 4.0 [5, 17]: 854.1 Minutes
- Max-Min of 24 hour median gastric pH [5, 17]: 2.2 pH units
- Max-Min of time below pH 3.5 [5, 17]: 679 min
- Max-Min of time below pH 4.0 [5, 17]: 510 min
- Max-Min of upright pH values [5, 17]: 2.8 pH units
- Mean of upright pH values [5, 17]: 3.0
- Range of time below pH 3.5 [5, 17]: 486-1165 min
- Range of time below pH 4.0 [5, 17]: 714-1224 Minutes
- Range of upright pH values [5, 17]: 1.8-4.6
- Standard Deviation of 24 hour median gastric pH [5, 17]: 1.1
- Mean of 24 hour median gastric pH [5, 18]: 3.1
- Range of 24 hour median gastric pH [5, 18]: 1.8-4.0
- Median pH (Upright), by subject ([5]; BID 40 mg): 1.8 pH Units
- Fraction time pH < 4, by subject ([5]; BID 40 mg): (69.8%)
- Time pH < 4, by subject ([5]; BID 40 mg): 1005 min
- Patients with 24-hour median gastric pH below 2.5 ([5]; BID period (40 mg)): three
- Difference in Median pH (Upright), TID period vs BID period ([5]; Subject 106): 2.2 pH Units
- Difference in Median pH, TID period vs BID period ([5]; Subject 106): 2.1 pH Units
- Difference in Time pH < 4, BID period vs TID period ([5]; Subject 106): 268 min
- Median pH (Upright), by subject ([5]; TID 26.6 mg): 4.0 pH Units
- Fraction time pH < 4, by subject ([5]; TID 26.6 mg): (51.2%)
- Time pH < 4, by subject ([5]; TID 26.6 mg): 737 min
- Patients with 24-hour median gastric pH below 2.5 ([5]; TID period (26.6 mg)): no patients
